{"source": "patent US20100324101A1", "about": "“Use of Succinate Dehydrogenase Inhibitors for Increasing the Resistance of Plants or Parts of Plants to Abiotic Stress” (Bayer CropScience AG, priority 2009, published 2010)", "format_in_all_cases": "in vivo", "key": {"[1]": {"tested_on": "oilseed rape - Brassica napus", "experiment": "Greenhouse drought stress test on oilseed rape after spray treatment", "conditions": "BRSNS (oilseed rape), drought stress 26° C./18° C. (day/night) one week, 7 days recovery; 250 g of a.s./ha, spray 600 l/ha; damage vs untreated stressed plants", "procedure": "(§1) Oilseed rape, maize and barley are cultivated on sandy clay under greenhouse conditions. After 2-3 weeks, after BBCH10 to BBCH13 has been reached, the plants are each treated with bixafen at application rates of from 250 g/ha and 100 g/h. The spray volume is adjusted to 600 l/ha. The plants are then exposed to drought stress by heating the test chamber to 26° C./18° C. (day/night) or cold temperature stress brought about by cooling the test chamber to 8° C./1° C. (day/night). After one week, the test chamber is readjusted to normal temperatures and the test plants are then allowed to recover for 7 days. Evaluation of the compounds tested is carried out by comparison of the treated plants with the untreated plants, each of which was exposed to the stress factors, using the formula below: [formula] EFF: efficiency (%) SWug: damage to untreated control plants SWbg: damage to treated plants"}, "barley - Hordeum vulgare": {"tested_on": "barley - Hordeum vulgare", "experiment": "Greenhouse drought stress test on barley after spray treatment", "conditions": "HORVS (barley), drought stress 26° C./18° C. (day/night) one week, 7 days recovery; 100 g of a.s./ha, spray 600 l/ha; damage vs untreated stressed plants", "procedure": "as §1"}, "maize - Zea mays": {"tested_on": "maize - Zea mays", "experiment": "Greenhouse cold temperature stress test on maize after spray treatment", "conditions": "cold temperature stress 8° C./1° C. (day/night) one week, 7 days recovery, spray 600 l/ha, damage vs untreated stressed plants", "procedure": "as §1"}}, "data": [{"molecule": "Cn1cc(C(=O)Nc2ccc(F)cc2-c2ccc(Cl)c(Cl)c2)c(C(F)F)n1", "note": "[bixafen, N-(3′,4′-dichloro-5-fluoro-1,1′-biphenyl-2-yl)-3-(difluoromethyl)-1-methyl-1H-pyrazole-4-carboxamide]", "values": [{"measurement": "Efficiency", "setting": "[1]", "result": 15, "unit": "%"}, {"measurement": "Efficiency", "setting": "barley - Hordeum vulgare", "result": 22, "unit": "%"}, {"measurement": "Efficiency", "setting": "maize - Zea mays; 100 g of a.s./ha", "result": 21, "unit": "%"}, {"measurement": "Efficiency", "setting": "maize - Zea mays; 250 g of a.s./ha", "result": 47, "unit": "%"}]}]}
